Assay results reported in article PMC8400257, “2-Phenoxy-3-Trichloromethylquinoxalines Are Antiplasmodial Derivatives with Activity against the Apicoplast of Plasmodium falciparum” (Pharmaceuticals, 2021).
“Also recorded” adds a separate entry of the source.

What was measured:
[1] = system: P. falciparum ART-sensitive strain F32-TEM; experiment: Standard in vitro chemo-sensitivity assay, F32-TEM; type: cell-based; settings: Plasmodium falciparum, F32, 48 h, read-out: Mean ± SEM EC50 values F32-TEM
Description: The Plasmodium falciparum ART-resistant strain F32-ART5 and its tween ART-sensitive strain F32-TEM [33, 41] were cultivated at 37 °C with 5% CO2 in human red blood cells (EFS, French Blood Bank) diluted to 2% hematocrit in RPMI-1640 medium (Biowest, Nuaillé, France) supplemented with 5% human serum (EFS, French Blood Bank), as previously reported.
The chemosensitivity assay was carried out in 96-well culture plates on synchronized ring-stage parasites at 1% parasitemia obtained after D-sorbitol treatment. The antiplasmodial activities were evaluated using the SYBR Green I method. Parasites were exposed for 48 h to a range of concentrations of the different tested compounds. Each drug concentration was tested in triplicates. Parasite pellets were then washed in 1× PBS prior to lysing red blood cells at −20 °C overnight. Then, the plates were thawed and 100 µL of each well were transferred into a black 96-well plate. Next, 100 µL per well of SYBR Green I (Thermo Fisher) diluted at a final concentration of 2× in lysis buffer (20 mM Tris base pH 7.5, 5 mM EDTA, 0.008% w/v saponin, 0.08% w/v Triton X-100) were added and left to incubate for 1 h at room temperature prior to reading the plates on BioTek FLx800 Microplate Fluorescence Reader (λexcitation = 485 nm, λemission = 528 nm). Relative EC50 values were determined using GraphPad Prism software.

[2] = In vitro cytotoxicity evaluation HepG2 (MTT); type: cell-based, human; settings: human, CC50 HepG2 (µM) ± SD
Description: For all molecules, the selectivity index was calculated as following SI = CC50/EC50.
Triplicate assays were performed for each sample. Each plate-well was then microscopically examined for possible precipitate formation before the medium was aspirated from the wells. Next, 100 µL of MTT (3-(4,5-dimethyl-2-thiazolyl)-2,5-diphenyl -2H-tetrazolium bromide) solution (0.5 mg/mL in medium without FBS) was added to each well. […] After this time, the MTT solution was removed and DMSO (100 μL) was added to dissolve the resulting blue formazan crystals. Plates were shaken vigorously (700 rpm) for 10 min. The absorbance was measured at 570 nm with 630 nm as reference wavelength using a BIO-TEK ELx808 Absorbance Microplate Reader (LabX, Midland, ON, Canada). DMSO was used as blank and doxorubicin (purchased from Sigma Aldrich) as positive control. Cell viability was calculated as a percentage of control (cells incubated without compound). […] CC50 values to represent the mean value calculated from three independent experiments.

P. falciparum apicoplast = experiment: Immunofluorescence assay of apicoplast biogenesis on treated blood-stage parasites; type: cell-based, Plasmodium falciparum; settings: 48 h, 0.2 µM
Description: To determine the impact of (3i) on apicoplast biogenesis, parasites were treated for 48 h with 0.2 µM of (3i) or 0.2 µM of (2i) (a control of (3i) for which the active CCl3 was replaced by a methyl CH3 group) and compared to untreated parasites by immunofluorescence assay. […] In order to determine if the apicoplast is the main target of (3i), we performed a growth assay over three life cycles to assess a potential delayed death effect, one of the major signature for compounds affecting apicoplast. […] The second interpretation could be that, unlike chloramphenicol or doxycycline, which cause a delayed death phenotype on Plasmodium, (3i) could act like fosmidomycin or actinonin and cause a rapid death phenotype.
Plasmodium falciparum blood stage parasites were maintained at 2% hematocrit in 1640 RPMI-HEPES, supplemented with 5% AlbuMAX II (GIBCO) and 0.25% gentamycin. Parasites were grown sealed Perspex chambers gassed with beta mix gas (1% O2, 5% CO2 and 94% N2) at 37 °C and maintained on 48-h cycles. Cultures were tightly synchronized at ring stage using sorbitol treatment (5% v/v) as previously described.
Prior to the treatment, parasites were synchronized using 5% sorbitol. After 48 h treatment ([…] or DMSO) parasites were fixed using 4% paraformaldehyde (PFA) and 0.0075% glutaraldehyde for 30 min at room temperature. […]

With `O=[N+]([O-])c1ccc(Oc2nc3ccccc3nc2C(Cl)(Cl)Cl)cc1` [3i, 2-(4-Nitrophenoxy)-3-trichloromethylquinoxaline] the EC50 [1] was 0.392 ± 0.034 µM, the CC50 at 72 h [2] was 32 ± 6.1 µM and the “Effect on apicoplast biogenesis (immunofluorescence)” value (P. falciparum apicoplast) was “effect on the apicoplast biogenesis; also recorded: doted single non-elongated apicoplast at the mid-trophozoite life stage”.
